Measured values as given in patent publication US20260262643A1, “HERBICIDAL BENZOXAZINES” (FMC CORPORATION, priority 2022, published 2026).

Tests used:
barnyardgrass [1] = test: Test A preemergence; assay type: in vivo, Echinochloa crusgalli
Source text: (§1) Seeds of plant species selected from barnyardgrass (Echinochloa crusgalli), blackgrass (Alopecurus myosuroides), corn (Zea mays), foxtail, giant (giant foxtail, Setaria faberi), goosegrass (Eleusine indica), kochia (Bassia scoparia), oat, wild (wild oat, Avena fatua), pigweed, palmer (palmer amaranth, palmer pigweed, Amaranthus palmeri), Pigweed, Redroot (redroot pigweed, Amaranthus retroflexus), ragweed (common ragweed, Ambrosia artemisiifolia), ryegrass, Italian (italian ryegrass, Lolium multiflorum), soybean (Glycine max), and wheat (Triticum aestivum) were planted into a blend of loam soil and sand and treated preemergence with a directed soil spray using test chemicals formulated in a non-phytotoxic solvent mixture which included a surfactant. At the same time, plants selected from these crops and weed species and also galium (catchweed bedstraw, Galium aparine) and horseweed (Erigeron canadensis) were planted in pots containing the same blend of loam soil and sand and treated with postemergence applications of test chemicals formulated in the same manner. Plants ranged in height from 2 to 10 cm and were in the one- to two-leaf stage for the postemergence treatment. Treated plants and untreated controls were maintained in a greenhouse for 10 days, after which time all treated plants were compared to untreated controls and visually evaluated for injury. Plant response ratings, summarized in Table A, are based on a 0 to 100 scale where 0 is no effect and 100 is complete control. A dash (-) response means no test result.

blackgrass [2] = test: Test A preemergence; assay type: in vivo, Alopecurus myosuroides
In short: (§2)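 Greenhouse pot test, 10 days. Compound (non-phytotoxic solvent, surfactant) sprayed on soil at seeding or on seedlings at one- to two-leaf stage. Visual injury rated 0–100 against untreated plants.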

corn [3] = test: Test A preemergence; assay type: in vivo, Zea mays; conditions: visual injury after 10 days, 0 to 100 scale, 0 is no effect, 100 is complete control
In short: as §2

foxtail, giant [4] = test: Test A preemergence; assay type: in vivo, Setaria faberi
In short: as §2

kochia [5] = test: Test A preemergence; assay type: in vivo, Bassia scoparia
In short: as §2

oat, wild [6] = test: Test A preemergence; assay type: in vivo, Avena fatua; conditions: visual injury after 10 days, 0 to 100 scale, 0 is no effect, 100 is complete control
In short: as §2

pigweed, palmer [7] = test: Test A preemergence; assay type: in vivo, Amaranthus palmeri
In short: as §2

ragweed [8] = test: Test A preemergence; assay type: in vivo, Ambrosia artemisiifolia
In short: as §2

ryegrass, Italian [9] = test: Test A preemergence; assay type: in vivo, Lolium multiflorum
In short: as §2

soybean [10] = test: Test A preemergence; assay type: in vivo, Glycine max; conditions: visual injury after 10 days, 0 to 100 scale, 0 is no effect, 100 is complete control
In short: as §2

wheat [11] = test: Test A preemergence; assay type: in vivo, Triticum aestivum; conditions: visual injury after 10 days, 0 to 100 scale, 0 is no effect, 100 is complete control
In short: as §2

barnyardgrass [12] = test: Test A postemergence; assay type: in vivo, Echinochloa crusgalli
Source text: as §1

blackgrass [13] = test: Test A postemergence; assay type: in vivo, Alopecurus myosuroides
In short: as §2

corn [14] = test: Test A postemergence; assay type: in vivo, Zea mays; conditions: postemergence, 10 days
In short: as §2

foxtail, giant [15] = test: Test A postemergence; assay type: in vivo, Setaria faberi
In short: as §2

kochia [16] = test: Test A postemergence; assay type: in vivo, Bassia scoparia
In short: as §2

oat, wild [17] = test: Test A postemergence; assay type: in vivo, Avena fatua; conditions: postemergence, 10 days
In short: as §2

pigweed, palmer [18] = test: Test A postemergence; assay type: in vivo, Amaranthus palmeri
In short: as §2

ragweed [19] = test: Test A postemergence; assay type: in vivo, Ambrosia artemisiifolia
In short: as §2

ryegrass, Italian [20] = test: Test A postemergence; assay type: in vivo, Lolium multiflorum
In short: as §2

soybean [21] = test: Test A postemergence; assay type: in vivo, Glycine max; conditions: postemergence, 10 days
In short: as §2

wheat [22] = test: Test A postemergence; assay type: in vivo, Triticum aestivum; conditions: postemergence, 10 days
In short: as §2

galium = test: Test A postemergence; assay type: in vivo, Galium aparine
In short: as §2

horseweed = test: Test A postemergence; assay type: in vivo, Erigeron canadensis
In short: as §2

[23] = 125 g ai/ha, visual injury after 10 days, 0 to 100 scale, 0 is no effect, 100 is complete control
[24] = 500 g ai/ha, visual injury after 10 days, 0 to 100 scale, 0 is no effect, 100 is complete control
[25] = 125 g ai/ha, postemergence, 10 days, 0 to 100 scale, 0 no effect, 100 complete control
[26] = 500 g ai/ha, postemergence, 10 days, visual injury, 0 to 100 scale (0 no effect, 100 complete control)
[27] = 125 g ai/ha, 0 to 100 scale, 0 no effect, 100 complete control
[28] = 500 g ai/ha, visual injury, 0 to 100 scale (0 no effect, 100 complete control)
[29] = 1000 g ai/ha, 0 to 100 scale (0 no effect, 100 complete control), 10 days
[30] = 1000 g ai/ha, Postemergence, 0 to 100 scale

Cc1cccc2c1O[C@@H](C)CN2C(=O)c1cccc(-n2cnc(COC(C)C)n2)c1 [Compound 135]
Plant response rating, Barnyardgrass (barnyardgrass [1]; [23]): 30 | Plant response rating, Barnyardgrass (barnyardgrass [1]; [24]): 70 | Plant response rating, Blackgrass (blackgrass [2]; [23]): 60 | Plant response rating, Blackgrass (blackgrass [2]; [24]): 80 | Plant response rating, Corn (corn [3]; 125 g ai/ha): 0 | Plant response rating, Corn (corn [3]; 500 g ai/ha): 10 | Plant response rating, Foxtail, Giant (foxtail, giant [4]; [23]): 10 | Plant response rating, Foxtail, Giant (foxtail, giant [4]; [24]): 100 | Plant response rating, Kochia (kochia [5]; [23]): 0 | Plant response rating, Kochia (kochia [5]; [24]): 0 | Plant response rating, Oat, Wild (oat, wild [6]; 125 g ai/ha): 60 | Plant response rating, Oat, Wild (oat, wild [6]; 500 g ai/ha): 90 | Plant response rating, Pigweed, Palmer (pigweed, palmer [7]; [23]): 10 | Plant response rating, Pigweed, Palmer (pigweed, palmer [7]; [24]): 30 | Plant response rating, Ragweed (ragweed [8]; [23]): 0 | Plant response rating, Ragweed (ragweed [8]; [24]): 0 | Plant response rating, Ryegrass, Italian (ryegrass, Italian [9]; [23]): 60 | Plant response rating, Ryegrass, Italian (ryegrass, Italian [9]; [24]): 90 | Plant response rating, Soybean (soybean [10]; 125 g ai/ha): 20 | Plant response rating, Soybean (soybean [10]; 500 g ai/ha): 30 | Plant response rating, Wheat (wheat [11]; 125 g ai/ha): 0 | Plant response rating, Wheat (wheat [11]; 500 g ai/ha): 30 | Barnyardgrass plant response rating (barnyardgrass [12]; [25]): 0 | Plant response rating, Barnyardgrass (barnyardgrass [12]; [26]): 10 | Blackgrass plant response rating (blackgrass [13]; [25]): 0 | Plant response rating, Blackgrass (blackgrass [13]; [26]): 70 | Corn plant response rating (corn [14]; [27]): 10 | Plant response rating, Corn (corn [14]; [28]): 60 | Foxtail, Giant plant response rating (foxtail, giant [15]; [25]): 10 | Plant response rating, Foxtail, Giant (foxtail, giant [15]; [26]): 90 | Kochia plant response rating (kochia [16]; [25]): 0 | Plant response rating, Kochia (kochia [16]; [26]): 50 | Oat, Wild plant response rating (oat, wild [17]; [27]): 0 | Plant response rating, Oat, Wild (oat, wild [17]; [28]): 20 | Pigweed, Palmer plant response rating (pigweed, palmer [18]; [25]): 10 | Plant response rating, Pigweed, Palmer (pigweed, palmer [18]; [26]): 20 | Ragweed plant response rating (ragweed [19]; [25]): 0 | Plant response rating, Ragweed (ragweed [19]; [26]): 30 | Ryegrass, Italian plant response rating (ryegrass, Italian [20]; [25]): 0 | Plant response rating, Ryegrass, Italian (ryegrass, Italian [20]; [26]): 50 | Soybean plant response rating (soybean [21]; [27]): 90 | Plant response rating, Soybean (soybean [21]; [28]): 100 | Wheat plant response rating (wheat [22]; [27]): 10 | Plant response rating, Wheat (wheat [22]; [28]): 50 | Galium plant response rating (galium; [25]): 50 | Plant response rating, Galium (galium; [26]): 80 | Horseweed plant response rating (horseweed; [25]): 0 | Plant response rating, Horseweed (horseweed; [26]): 0

Cc1cccc2c1O[C@@H](C)CN2C(=O)c1cccc(-n2cc(F)cn2)c1 [Compound 131]
Plant response rating, Barnyardgrass (barnyardgrass [1]; [29]): 10 | Plant response rating, Blackgrass (blackgrass [2]; [29]): 10 | Plant response rating, Foxtail, Giant (foxtail, giant [4]; [29]): 60 | Plant response rating, Kochia (kochia [5]; [29]): 0 | Plant response rating, Pigweed, Palmer (pigweed, palmer [7]; [29]): 0 | Plant response rating, Ragweed (ragweed [8]; [29]): 0 | Plant response rating, Ryegrass, Italian (ryegrass, Italian [9]; [29]): 60 | Plant response rating, Barnyardgrass (barnyardgrass [12]; [30]): 10 | Plant response rating, Blackgrass (blackgrass [13]; [30]): 0 | Plant response rating, Foxtail, Giant (foxtail, giant [15]; [30]): 10 | Plant response rating, Kochia (kochia [16]; [30]): 40 | Plant response rating, Pigweed, Palmer (pigweed, palmer [18]; [30]): 0 | Plant response rating, Ragweed (ragweed [19]; [30]): 0 | Plant response rating, Ryegrass, Italian (ryegrass, Italian [20]; [30]): 0 | Plant response rating, Galium (galium; [30]): 20 | Plant response rating, Horseweed (horseweed; [30]): 0
